Test results reported in PubChem BioAssay (NCI).
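96-well plates; 48 h exposure; 5 concentrations. Endpoints by linear interpolation between flanking doses. Not reached: highest tested concentration assigned. GI50 is the concentration that inhibits growth by half. At the TGI there is no net growth.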

Each compound was assayed on KM12 colon (assay: NCI-60 cell line screen, 48 h).

SMILES	GI50 [µM]	TGI [µM]
Nc1ccc([N+](=O)[O-])cc1N=C/C=C/c1ccccc1	3.87	51.2
COc1cccc(C2CC(C)(O)Oc3cc4c(cc32)OCO4)c1O (centres undefined)		52.3
CCN(CC)CCCN1CCc2c([nH]c3ccccc23)C1c1cccnc1 (centres undefined)		> 100
CNCc1ccccc1-c1csc([C@@H](C)Nc2nc(C)nc3cc(OC)c(OC)cc23)c1	3.27	11.9
Nc1nc(Cl)cc(NCCCCCCCCNc2cc(Cl)nc(N)n2)n1		56.9
Cn1cc(C2=C(c3ccc(N)cc3)C(=O)NC2=O)c2ccccc21	10.9	> 25
Cc1cc(Cl)cc(OCCn2cc(F)cn2)c1-c1nc(N)nc2c1CN(C(=O)NCC(C)(F)F)C2	0.0508	0.459
CCN(CC)CCC(CNc1ccnc2cc(Cl)ccc12)c1ccc(Cl)cc1 (centres undefined)	1.79	4.44
COc1cccc(F)c1C(=O)c1cnc(NC2CCN(S(C)(=O)=O)CC2)nc1N	2.02	> 20.7
CCOC(=O)C(C#N)C1=CC(=O)C(=O)c2ccc(OC)cc21 (centres undefined)		41.3
COc1cc(OCc2cccc(-c3ccc(C(O)c4nccs4)cc3)c2C)cc(OC)c1C=O (centres undefined)	3.02	11
COC(=O)c1ccc2c(c1)nc(NC(=O)c1ccccc1)n2CCCc1ccccc1	4.5	> 100
Cc1ccc(S(=O)(=O)Nc2ccccc2C=O)cc1		33.5
O=C(O)COc1ccc2c(=O)c3sc4c(=O)c5ccccc5c(=O)c4c3c(=O)c2c1	24.3	> 100
Cc1ccc(S(=O)(=O)N(C=O)N=C2CCN(Cc3ccccc3)CC2)cc1		> 100
O=C(Nc1ccc2ncccc2c1)Nc1ccc2ncccc2c1		> 100
CC1(C)S[C@@H]2[C@H](NC(=O)C3(N)CCCCC3)C(=O)N2[C@H]1C(=O)O		> 100
CC1(C)N=C(N)N=C(N)N1c1ccc(CCCCc2ccc(Cl)cc2S(=O)(=O)F)c(Cl)c1	0.551	14.4
O=C(Nc1ccc(Nc2ccncc2)cc1)c1ccc([N+](=O)[O-])cc1	4.23	17.3
C(=NCCN1CCOCC1)=NC1CCCCC1		> 100
COc1ccccc1/C=N\N/C(N)=N\N=C\c1ccccc1OC	0.264	1.36
CC[As](CC)SC[C@H](C)C(=O)N1CCC[C@H]1C(=O)O	0.301	1.27

What follows are compounds tested on LOX IMVI melanoma (assay: NCI-60 cell line screen, 48 h).

SMILES	GI50 [µM]	TGI [µM]
Nc1ccc([N+](=O)[O-])cc1N=C/C=C/c1ccccc1	3.98	80.7
COc1cccc(C2CC(C)(O)Oc3cc4c(cc32)OCO4)c1O (centres undefined)		> 100
CCN(CC)CCCN1CCc2c([nH]c3ccccc23)C1c1cccnc1 (centres undefined)		> 100
CNCc1ccccc1-c1csc([C@@H](C)Nc2nc(C)nc3cc(OC)c(OC)cc23)c1	1.57	2.98
Nc1nc(Cl)cc(NCCCCCCCCNc2cc(Cl)nc(N)n2)n1		34.7
Cn1cc(C2=C(c3ccc(N)cc3)C(=O)NC2=O)c2ccccc21	9.88	> 25
Cc1cc(Cl)cc(OCCn2cc(F)cn2)c1-c1nc(N)nc2c1CN(C(=O)NCC(C)(F)F)C2	0.0852	0.552
CCN(CC)CCC(CNc1ccnc2cc(Cl)ccc12)c1ccc(Cl)cc1 (centres undefined)	1.02	2.38
COc1cccc(F)c1C(=O)c1cnc(NC2CCN(S(C)(=O)=O)CC2)nc1N	1.85	> 25
CCOC(=O)C(C#N)C1=CC(=O)C(=O)c2ccc(OC)cc21 (centres undefined)		40.7
COc1cc(OCc2cccc(-c3ccc(C(O)c4nccs4)cc3)c2C)cc(OC)c1C=O (centres undefined)	1.79	4.08
COC(=O)c1ccc2c(c1)nc(NC(=O)c1ccccc1)n2CCCc1ccccc1	2.63	> 100
Cc1ccc(S(=O)(=O)Nc2ccccc2C=O)cc1		27.5
O=C(O)COc1ccc2c(=O)c3sc4c(=O)c5ccccc5c(=O)c4c3c(=O)c2c1	9.18	61.1
Cc1ccc(S(=O)(=O)N(C=O)N=C2CCN(Cc3ccccc3)CC2)cc1		> 100
O=C(Nc1ccc2ncccc2c1)Nc1ccc2ncccc2c1		> 100
CC1(C)S[C@@H]2[C@H](NC(=O)C3(N)CCCCC3)C(=O)N2[C@H]1C(=O)O		> 100
CC1(C)N=C(N)N=C(N)N1c1ccc(CCCCc2ccc(Cl)cc2S(=O)(=O)F)c(Cl)c1	0.242	13.4
O=C(Nc1ccc(Nc2ccncc2)cc1)c1ccc([N+](=O)[O-])cc1	3.72	14.7
C(=NCCN1CCOCC1)=NC1CCCCC1		> 100
COc1ccccc1/C=N\N/C(N)=N\N=C\c1ccccc1OC	2.4	> 39.5
CC[As](CC)SC[C@H](C)C(=O)N1CCC[C@H]1C(=O)O	0.0458	0.102

The compounds below were run on SK-MEL-2 melanoma (assay: NCI-60 cell line screen, 48 h).

SMILES	GI50 [µM]	TGI [µM]
Nc1ccc([N+](=O)[O-])cc1N=C/C=C/c1ccccc1	28.6	> 100
COc1cccc(C2CC(C)(O)Oc3cc4c(cc32)OCO4)c1O (centres undefined)		> 80.4
CCN(CC)CCCN1CCc2c([nH]c3ccccc23)C1c1cccnc1 (centres undefined)		> 100
CNCc1ccccc1-c1csc([C@@H](C)Nc2nc(C)nc3cc(OC)c(OC)cc23)c1	1.87	3.69
Nc1nc(Cl)cc(NCCCCCCCCNc2cc(Cl)nc(N)n2)n1		> 100
Cn1cc(C2=C(c3ccc(N)cc3)C(=O)NC2=O)c2ccccc21	8.38	> 19
Cc1cc(Cl)cc(OCCn2cc(F)cn2)c1-c1nc(N)nc2c1CN(C(=O)NCC(C)(F)F)C2	0.508	> 100
CCN(CC)CCC(CNc1ccnc2cc(Cl)ccc12)c1ccc(Cl)cc1 (centres undefined)	1.57	3.18
COc1cccc(F)c1C(=O)c1cnc(NC2CCN(S(C)(=O)=O)CC2)nc1N	3.43	9.94
CCOC(=O)C(C#N)C1=CC(=O)C(=O)c2ccc(OC)cc21 (centres undefined)		28.1
COc1cc(OCc2cccc(-c3ccc(C(O)c4nccs4)cc3)c2C)cc(OC)c1C=O (centres undefined)	2.58	8.53
COC(=O)c1ccc2c(c1)nc(NC(=O)c1ccccc1)n2CCCc1ccccc1	5.58	> 100
Cc1ccc(S(=O)(=O)Nc2ccccc2C=O)cc1		30.4
O=C(O)COc1ccc2c(=O)c3sc4c(=O)c5ccccc5c(=O)c4c3c(=O)c2c1	19.8	49.3
Cc1ccc(S(=O)(=O)N(C=O)N=C2CCN(Cc3ccccc3)CC2)cc1		> 100
O=C(Nc1ccc2ncccc2c1)Nc1ccc2ncccc2c1		> 100
CC1(C)S[C@@H]2[C@H](NC(=O)C3(N)CCCCC3)C(=O)N2[C@H]1C(=O)O		> 100
CC1(C)N=C(N)N=C(N)N1c1ccc(CCCCc2ccc(Cl)cc2S(=O)(=O)F)c(Cl)c1	3.07	25.1
O=C(Nc1ccc(Nc2ccncc2)cc1)c1ccc([N+](=O)[O-])cc1	9.64	28.9
C(=NCCN1CCOCC1)=NC1CCCCC1		> 100
COc1ccccc1/C=N\N/C(N)=N\N=C\c1ccccc1OC	0.527	10.3
CC[As](CC)SC[C@H](C)C(=O)N1CCC[C@H]1C(=O)O	0.522	1.77

The compounds below were run on SW-620 colon (assay: NCI-60 cell line screen, 48 h).

SMILES	GI50 [µM]	TGI [µM]
Nc1ccc([N+](=O)[O-])cc1N=C/C=C/c1ccccc1	6.12	> 100
COc1cccc(C2CC(C)(O)Oc3cc4c(cc32)OCO4)c1O (centres undefined)		> 100
CCN(CC)CCCN1CCc2c([nH]c3ccccc23)C1c1cccnc1 (centres undefined)		> 100
CNCc1ccccc1-c1csc([C@@H](C)Nc2nc(C)nc3cc(OC)c(OC)cc23)c1	1.49	3.44
Nc1nc(Cl)cc(NCCCCCCCCNc2cc(Cl)nc(N)n2)n1		> 100
Cn1cc(C2=C(c3ccc(N)cc3)C(=O)NC2=O)c2ccccc21	13.7	> 25
Cc1cc(Cl)cc(OCCn2cc(F)cn2)c1-c1nc(N)nc2c1CN(C(=O)NCC(C)(F)F)C2	0.043	> 100
CCN(CC)CCC(CNc1ccnc2cc(Cl)ccc12)c1ccc(Cl)cc1 (centres undefined)	1.48	3.39
COc1cccc(F)c1C(=O)c1cnc(NC2CCN(S(C)(=O)=O)CC2)nc1N	0.781	> 18.1
CCOC(=O)C(C#N)C1=CC(=O)C(=O)c2ccc(OC)cc21 (centres undefined)		33.3
COc1cc(OCc2cccc(-c3ccc(C(O)c4nccs4)cc3)c2C)cc(OC)c1C=O (centres undefined)	3.2	12.7
COC(=O)c1ccc2c(c1)nc(NC(=O)c1ccccc1)n2CCCc1ccccc1	4.03	> 100
Cc1ccc(S(=O)(=O)Nc2ccccc2C=O)cc1		47.5
O=C(O)COc1ccc2c(=O)c3sc4c(=O)c5ccccc5c(=O)c4c3c(=O)c2c1	11.4	28.6
Cc1ccc(S(=O)(=O)N(C=O)N=C2CCN(Cc3ccccc3)CC2)cc1		> 100
O=C(Nc1ccc2ncccc2c1)Nc1ccc2ncccc2c1		> 100
CC1(C)S[C@@H]2[C@H](NC(=O)C3(N)CCCCC3)C(=O)N2[C@H]1C(=O)O		> 100
CC1(C)N=C(N)N=C(N)N1c1ccc(CCCCc2ccc(Cl)cc2S(=O)(=O)F)c(Cl)c1	0.234	14.1
O=C(Nc1ccc(Nc2ccncc2)cc1)c1ccc([N+](=O)[O-])cc1	2.22	5.08
C(=NCCN1CCOCC1)=NC1CCCCC1		> 100
COc1ccccc1/C=N\N/C(N)=N\N=C\c1ccccc1OC	0.376	18.9
CC[As](CC)SC[C@H](C)C(=O)N1CCC[C@H]1C(=O)O	0.0344	0.11

Each compound was assayed on NCI-H522 lung (assay: NCI-60 cell line screen, 48 h).

SMILES	GI50 [µM]	TGI [µM]
Nc1ccc([N+](=O)[O-])cc1N=C/C=C/c1ccccc1	4.47	59
COc1cccc(C2CC(C)(O)Oc3cc4c(cc32)OCO4)c1O (centres undefined)		53.5
CCN(CC)CCCN1CCc2c([nH]c3ccccc23)C1c1cccnc1 (centres undefined)		> 100
CNCc1ccccc1-c1csc([C@@H](C)Nc2nc(C)nc3cc(OC)c(OC)cc23)c1	1.54	3.64
Nc1nc(Cl)cc(NCCCCCCCCNc2cc(Cl)nc(N)n2)n1		37.2
Cn1cc(C2=C(c3ccc(N)cc3)C(=O)NC2=O)c2ccccc21	15.4	> 25
Cc1cc(Cl)cc(OCCn2cc(F)cn2)c1-c1nc(N)nc2c1CN(C(=O)NCC(C)(F)F)C2	0.0781	> 100
CCN(CC)CCC(CNc1ccnc2cc(Cl)ccc12)c1ccc(Cl)cc1 (centres undefined)	0.608	2.19
COc1cccc(F)c1C(=O)c1cnc(NC2CCN(S(C)(=O)=O)CC2)nc1N	7.87	> 23.7
CCOC(=O)C(C#N)C1=CC(=O)C(=O)c2ccc(OC)cc21 (centres undefined)		18.7
COc1cc(OCc2cccc(-c3ccc(C(O)c4nccs4)cc3)c2C)cc(OC)c1C=O (centres undefined)	1.74	6.35
COC(=O)c1ccc2c(c1)nc(NC(=O)c1ccccc1)n2CCCc1ccccc1	3.58	99.3
Cc1ccc(S(=O)(=O)Nc2ccccc2C=O)cc1		82.1
O=C(O)COc1ccc2c(=O)c3sc4c(=O)c5ccccc5c(=O)c4c3c(=O)c2c1	19.3	53.4
Cc1ccc(S(=O)(=O)N(C=O)N=C2CCN(Cc3ccccc3)CC2)cc1		> 100
O=C(Nc1ccc2ncccc2c1)Nc1ccc2ncccc2c1		> 100
CC1(C)S[C@@H]2[C@H](NC(=O)C3(N)CCCCC3)C(=O)N2[C@H]1C(=O)O		> 100
CC1(C)N=C(N)N=C(N)N1c1ccc(CCCCc2ccc(Cl)cc2S(=O)(=O)F)c(Cl)c1	0.53	13.4
O=C(Nc1ccc(Nc2ccncc2)cc1)c1ccc([N+](=O)[O-])cc1	12.5	34.6
C(=NCCN1CCOCC1)=NC1CCCCC1		> 100
COc1ccccc1/C=N\N/C(N)=N\N=C\c1ccccc1OC	0.956	
CC[As](CC)SC[C@H](C)C(=O)N1CCC[C@H]1C(=O)O	0.0189	0.0482
